This note sets out measurements from PubChem BioAssay AID1259407 (Chemical Carcinogenesis Research Information System (CCRIS), 2018).

Molecules are shown by their SMILES. The source made the active and inactive calls. How the calls were made is not given here.

The test system of the data set is CCRIS mutagenicity, Ames/micronucleus/aberration tests. The data set can be described thus: CCRIS mutagenicity studies.
The mark [1] stands for this setting: Test System: AMES SALMONELLA TYPHIMURIUM, Strain/Indicator: TA97, Metabolic Activation: NONE, Method: STANDARD PLATE.
The mark [2] stands for this setting: Test System: AMES SALMONELLA TYPHIMURIUM, Strain/Indicator: TA98, Metabolic Activation: NONE, Method: STANDARD PLATE.
The mark [3] stands for this setting: Test System: AMES SALMONELLA TYPHIMURIUM, Strain/Indicator: TA100, Metabolic Activation: NONE, Method: STANDARD PLATE.
[4] abbreviates: Test System: AMES SALMONELLA TYPHIMURIUM, Strain/Indicator: TA102, Metabolic Activation: NONE, Method: STANDARD PLATE.
Where [5] appears, read: Test System: AMES SALMONELLA TYPHIMURIUM, Strain/Indicator: TA1535, Metabolic Activation: NONE, Method: STANDARD PLATE.
Setting [6] is: Test System: AMES SALMONELLA TYPHIMURIUM, Strain/Indicator: TA1537, Metabolic Activation: NONE, Method: STANDARD PLATE.
Setting [7] is: Test System: AMES SALMONELLA TYPHIMURIUM, Strain/Indicator: TA1538, Metabolic Activation: NONE, Method: STANDARD PLATE.
Where [8] appears, read: Test System: AMES SALMONELLA TYPHIMURIUM, Strain/Indicator: TA98, Metabolic Activation: RAT, LIVER, S-9, AROCLOR 1254, Method: STANDARD PLATE.
Where [9] appears, read: Test System: AMES SALMONELLA TYPHIMURIUM, Strain/Indicator: TA100, Metabolic Activation: RAT, LIVER, S-9, AROCLOR 1254, Method: STANDARD PLATE.
The mark [10] stands for this setting: Test System: AMES SALMONELLA TYPHIMURIUM, Strain/Indicator: TA1535, Metabolic Activation: RAT, LIVER, S-9, AROCLOR 1254, Method: STANDARD PLATE.
[11] abbreviates: Test System: AMES SALMONELLA TYPHIMURIUM, Strain/Indicator: TA1537, Metabolic Activation: RAT, LIVER, S-9, AROCLOR 1254, Method: STANDARD PLATE.
The mark [12] stands for this setting: Test System: AMES SALMONELLA TYPHIMURIUM, Strain/Indicator: TA1538, Metabolic Activation: RAT, LIVER, S-9, AROCLOR 1254, Method: STANDARD PLATE.

Regarding `CCOC(=O)Cc1c(C(=O)O)c2ccccc2n1C`, the mutagenic call is “inactive; negative” under setting [1]; “inactive; negative” (Test System: AMES SALMONELLA TYPHIMURIUM, Strain/Indicator: TA97, Metabolic Activation: RAT, LIVER, S-9, AROCLOR 1254 (4%, 10%), Method: STANDARD PLATE); “inactive; negative” under setting [2]; “inactive; negative” (Test System: AMES SALMONELLA TYPHIMURIUM, Strain/Indicator: TA98, Metabolic Activation: RAT, LIVER, S-9, AROCLOR 1254 (4%, 10%), Method: STANDARD PLATE); “inactive; negative” under setting [3]; “inactive; negative” (Test System: AMES SALMONELLA TYPHIMURIUM, Strain/Indicator: TA100, Metabolic Activation: RAT, LIVER, S-9, AROCLOR 1254 (4%, 10%), Method: STANDARD PLATE). The mutagenic call reads like this: under setting [4], “inactive; negative”; (Test System: AMES SALMONELLA TYPHIMURIUM, Strain/Indicator: TA102, Metabolic Activation: RAT, LIVER, S-9, AROCLOR 1254 (4%, 10%), Method: STANDARD PLATE) “inactive; negative”.

Consider `O=C(O)[C@@H]1CS[C@H](c2ccccc2O)N1C(=O)CCS`, for which the mutagenic call under setting [2] is “inactive; negative”; the mutagenic call (Test System: AMES SALMONELLA TYPHIMURIUM, Strain/Indicator: TA98, Metabolic Activation: S-9, Method: STANDARD PLATE) is “inactive; negative”; the mutagenic call under setting [3] was “inactive; negative”; the mutagenic call (Test System: AMES SALMONELLA TYPHIMURIUM, Strain/Indicator: TA100, Metabolic Activation: S-9, Method: STANDARD PLATE) is “inactive; negative”; the mutagenic call under setting [5] was “inactive; negative”; the mutagenic call (Test System: AMES SALMONELLA TYPHIMURIUM, Strain/Indicator: TA1535, Metabolic Activation: S-9, Method: STANDARD PLATE) was “inactive; negative”. For the same compound, the mutagenic call reads like this: under setting [6], “inactive; negative”; (Test System: AMES SALMONELLA TYPHIMURIUM, Strain/Indicator: TA1537, Metabolic Activation: S-9, Method: STANDARD PLATE) “inactive; negative”; under setting [7], “inactive; negative”; (Test System: AMES SALMONELLA TYPHIMURIUM, Strain/Indicator: TA1538, Metabolic Activation: S-9, Method: STANDARD PLATE) “inactive; negative”; (Test System: E. COLI, Strain/Indicator: WP2, Metabolic Activation: NONE, Method: STANDARD PLATE) “inactive; negative”; (Test System: E. COLI, Strain/Indicator: WP2 UVRA, Metabolic Activation: NONE, Method: STANDARD PLATE) “inactive; negative”. For the same compound, the mutagenic call (Test System: E. COLI, Strain/Indicator: WP2 UVRA, Metabolic Activation: S-9, Method: STANDARD PLATE) was “inactive; negative”.

On to `CC(C)Nc1nc(Cl)nc(NC(C)C)n1`, for which the mutagenic call under setting [1] is “inactive; negative”; the mutagenic call (Test System: AMES SALMONELLA TYPHIMURIUM, Strain/Indicator: TA97, Metabolic Activation: RAT, LIVER, S-9, AROCLOR 1254, Method: STANDARD PLATE) was “inactive; negative”; the mutagenic call (Test System: AMES SALMONELLA TYPHIMURIUM, Strain/Indicator: TA97A, Metabolic Activation: NONE, Method: STANDARD PLATE) is “inactive; negative”; the mutagenic call (Test System: AMES SALMONELLA TYPHIMURIUM, Strain/Indicator: TA97A, Metabolic Activation: RAT, LIVER, S-9, AROCLOR 1254, Method: STANDARD PLATE) was “inactive; negative”; the mutagenic call under setting [2] is “inactive; negative”; the mutagenic call under setting [8] is “inactive; negative”. Besides, the mutagenic call under setting [3] is “inactive; negative”; the mutagenic call under setting [9] is “inactive; negative”; the mutagenic call under setting [4] is “inactive; negative”; the mutagenic call (Test System: AMES SALMONELLA TYPHIMURIUM, Strain/Indicator: TA102, Metabolic Activation: RAT, LIVER, S-9, AROCLOR 1254, Method: STANDARD PLATE) was “inactive; negative”; the mutagenic call under setting [5] is “inactive; negative”; the mutagenic call under setting [10] is “inactive; negative”. Also, the mutagenic call reads like this: under setting [6], “inactive; negative”; under setting [11], “inactive; negative”; under setting [7], “inactive; negative”; under setting [12], “inactive; negative”.

On to `O=C(O)c1occ(-c2ccccc2)c1-c1ccccc1`, for which the mutagenic call under setting [2] was “inactive; negative” and the mutagenic call under setting [3] was “inactive; negative”.

Consider `CC(=O)[C@]1(C)O[C@@]12C=Cc1ccccc1C2=O`, for which the mutagenic call (Test System: AMES SALMONELLA TYPHIMURIUM, Strain/Indicator: TA100, Metabolic Activation: NONE, Method: PREINCUBATION) is “inactive; negative”.

As to `c1ccc2c(c1)-c1cccc3cc4ccccc4c-2c13`, the mutagenic call under setting [2] was “inactive; negative”, the mutagenic call under setting [8] is “inactive; negative” and the mutagenic call under setting [9] is “active; positive”.

As to `CC(C)(C)N(CCO)CCO`, the mutagenic call is, setting by setting: under setting [2], “inactive; negative”; under setting [8], “inactive; negative”; under setting [3], “inactive; negative”; under setting [9], “inactive; negative”; under setting [5], “inactive; negative”; under setting [10], “inactive; negative”. Also, the mutagenic call is, setting by setting: under setting [6], “inactive; negative”; under setting [11], “inactive; negative”; under setting [7], “inactive; negative”; under setting [12], “inactive; negative”; (Test System: CHINESE HAMSTER OVARY, Strain/Indicator: CHO-K1-BH4, Metabolic Activation: NONE) “inactive; negative”; (Test System: CHINESE HAMSTER OVARY, Strain/Indicator: CHO-K1-BH4, Metabolic Activation: RAT, LIVER, S-9, AROCLOR 1254) “inactive; negative”.

For `CC(=O)N(O)c1ccc(Oc2c(Cl)cc(Cl)cc2Cl)cc1`, the mutagenic call under setting [3] was “inactive; negative” and the mutagenic call (Test System: AMES SALMONELLA TYPHIMURIUM, Strain/Indicator: TA100, Metabolic Activation: RAT, LIVER, S-9, KANECLOR 500, Method: STANDARD PLATE) is “active; positive”.
